Literature values as cited in publication PMC10202292, “The exquisite specificity of human protein arginine methyltransferase 7 (PRMT7) toward Arg-X-Arg sites” (PLOS ONE, 2023).
No end group written: not given here.

System: human PRMT7
Conditions: relative to unsubstituted peptide; cited from earlier work
Description: Comparatively, a previous study of ionic strength in human HEK293 cells estimates the intracellular concentration of potassium ions to be about 120–140 mM in human cells. As such, our results in Fig 7 led us to question whether this dramatic decrease in activity may be associated with a loss of either substrate-enzyme binding affinity or catalytic activity. || We confirm that human PRMT7 activity is quite sensitive to changes in the RXR target sequence in the substrate protein. […] The exquisite specificity of PRMT7 toward the basic RXR motif can be contrasted to the much broader speci ...

| Substance | PRMT7 activity with substituted human histone H2B (23–37) peptides |
| --- | --- |
| R31K-substituted human H2B (23–37): R31K-substituted human H2B (23–37) peptide, from ref 11 (KKDGKKRKKSRKESY; not fully specified (N-terminus, C-terminus); UniProt P62807 24-38, looked up, variant R31K) | no methyl-accepting activity |
| R33K: human histone H2B (23–37) peptide with R33K substitution, from ref 11 (KKDGKKRKRSKKESY; not fully specified (N-terminus, C-terminus); UniProt P62807 24-38, looked up, variant R33K) | at least a two-thirds reduction |
